Target: human F508del-CFTR (Homo sapiens, UniProt P13569, DEL508-508)
Assay: F508del-CFTR cell surface expression (corrector activity), DiscoveRx ß-galactosidase complementation chemiluminescence assay in recombinant U2OS cell line;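 also: U2OS cells co-expressing ProLink-tagged F508del-CFTR and a membrane-anchored enzyme acceptor, where more surface CFTR restores β-galactosidase activity measured by chemiluminescence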
Conditions: U2OS cell line, 16h compound incubation; for EC50: EC50, F508del-CFTR cell surface expression, geomean values; for Emax: U2OS, in relation to the Emax of the corrector lumacaftor (=100%), arithmetic mean values

human F508del-CFTR, sequence (P13569 with tags, fused parts or gaps DEL508-508): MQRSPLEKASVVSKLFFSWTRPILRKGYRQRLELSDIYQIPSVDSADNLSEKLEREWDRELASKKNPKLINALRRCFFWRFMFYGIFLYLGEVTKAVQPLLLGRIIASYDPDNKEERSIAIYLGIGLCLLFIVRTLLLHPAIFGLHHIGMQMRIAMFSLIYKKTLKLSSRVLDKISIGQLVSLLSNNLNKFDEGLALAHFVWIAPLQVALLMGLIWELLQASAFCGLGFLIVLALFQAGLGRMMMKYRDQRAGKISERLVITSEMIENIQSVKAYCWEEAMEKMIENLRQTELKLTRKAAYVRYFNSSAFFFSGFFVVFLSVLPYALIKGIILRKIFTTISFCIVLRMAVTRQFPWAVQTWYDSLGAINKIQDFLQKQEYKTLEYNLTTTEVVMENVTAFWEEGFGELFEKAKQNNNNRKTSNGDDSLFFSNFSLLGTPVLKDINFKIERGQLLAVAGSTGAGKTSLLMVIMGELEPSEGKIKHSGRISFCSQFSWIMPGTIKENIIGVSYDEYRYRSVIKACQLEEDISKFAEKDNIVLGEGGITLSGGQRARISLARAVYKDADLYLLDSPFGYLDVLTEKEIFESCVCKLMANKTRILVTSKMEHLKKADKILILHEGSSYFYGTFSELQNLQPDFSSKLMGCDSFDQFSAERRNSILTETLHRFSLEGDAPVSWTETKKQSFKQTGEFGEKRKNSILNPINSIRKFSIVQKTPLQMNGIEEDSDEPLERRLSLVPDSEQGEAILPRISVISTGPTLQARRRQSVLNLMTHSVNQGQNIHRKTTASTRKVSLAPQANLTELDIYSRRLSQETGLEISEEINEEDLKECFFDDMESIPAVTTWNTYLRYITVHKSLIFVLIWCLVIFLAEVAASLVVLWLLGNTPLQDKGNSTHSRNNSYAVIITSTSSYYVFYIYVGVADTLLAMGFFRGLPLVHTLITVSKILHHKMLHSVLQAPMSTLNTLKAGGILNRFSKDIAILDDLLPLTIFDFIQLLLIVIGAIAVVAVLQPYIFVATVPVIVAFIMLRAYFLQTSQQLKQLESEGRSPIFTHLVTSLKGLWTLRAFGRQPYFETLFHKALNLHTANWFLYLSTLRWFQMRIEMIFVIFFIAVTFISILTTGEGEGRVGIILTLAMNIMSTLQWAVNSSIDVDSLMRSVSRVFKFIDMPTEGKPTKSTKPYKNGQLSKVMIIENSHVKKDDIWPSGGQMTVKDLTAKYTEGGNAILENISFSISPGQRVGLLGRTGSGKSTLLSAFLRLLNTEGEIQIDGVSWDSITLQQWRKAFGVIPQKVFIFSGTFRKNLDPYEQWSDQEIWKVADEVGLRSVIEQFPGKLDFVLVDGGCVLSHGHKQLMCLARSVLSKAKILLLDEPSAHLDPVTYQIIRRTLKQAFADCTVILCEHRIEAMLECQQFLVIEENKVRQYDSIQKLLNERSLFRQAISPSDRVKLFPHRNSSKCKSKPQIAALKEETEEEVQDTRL

EC50	Emax	Structure (SMILES)
0.777 µM	189%	COc1cc(CCNC(=O)[C@@H]2CC(=O)N(C)[C@@H](CC(C)C)C(=O)N3CCCC[C@@H]3C(=O)N[C@H](Cc3ccccc3)COc3cnc4ccccc4c3C(=O)N2)ccc1-n1nccn1 [Example 93, (9S,13S,19aR,22R)-22-benzyl-13-isobutyl-N-(3-methoxy-4-(2H-1,2,3-triazol-2-yl)phenethyl)-12-methyl-7,11,14,20-tetraoxo-7,8,9,10,11,12,13,14,17,18,19,19a,20,21,22,23-hexadecahydro-16H-pyrido[2′,1′:6,7][1]oxa[4,7,10,14]tetraazacycloheptadecino[17,16-c]quinoline-9-carboxamide]
0.25 µM	178%	COc1ccc(CCNC(=O)[C@@H]2CC(=O)N(C)[C@@H](CC(C)C)C(=O)N3CCCC[C@@H]3C(=O)N[C@H](Cc3ccccc3)COc3cnc4ccccc4c3C(=O)N2)cc1C [Example 95, (9S,13S,19aR,22R)-22-benzyl-13-isobutyl-N-(4-methoxy-3-methylphenethyl)-12-methyl-7,11,14,20-tetraoxo-7,8,9,10,11,12,13,14,17,18,19,19a,20,21,22,23-hexadecahydro-16H-pyrido[2′,1′:6,7][1]oxa[4,7,10,14]tetraazacycloheptadecino[17,16-c]quinoline-9-carboxamide]
0.146 µM	285%	CC(C)C[C@H]1C(=O)N2CCCC[C@@H]2C(=O)N[C@H](Cc2ccccc2)COc2cnc3ccccc3c2C(=O)N[C@H](C(=O)NCCc2cccc(F)c2F)CC(=O)N1C [Example 97, (9S,13S,19aR,22R)-22-benzyl-N-(2,3-difluorophenethyl)-13-isobutyl-12-methyl-7,11,14,20-tetraoxo-7,8,9,10,11,12,13,14,17,18,19,19a,20,21,22,23-hexadecahydro-16H-pyrido[2′,1′:6,7][1]oxa[4,7,10,14]tetraazacycloheptadecino[17,16-c]quinoline-9-carboxamide]
0.311 µM	326%	Cc1cc(CCNC(=O)[C@@H]2CC(=O)N(C)[C@@H](CC(C)C)C(=O)N3CCCC[C@@H]3C(=O)N[C@H](Cc3ccccc3)COc3cnc4ccccc4c3C(=O)N2)no1 [Example 98, (9S,13S,19aR,22R)-22-benzyl-13-isobutyl-12-methyl-N-(2-(5-methylisoxazol-3-yl)ethyl)-7,11,14,20-]
0.205 µM	254%	CC(C)C[C@H]1C(=O)N2CCCC[C@@H]2C(=O)N[C@H](Cc2ccccc2)COc2cnc3ccccc3c2C(=O)N[C@H](C(=O)NCCc2c(F)cc(Br)cc2F)CC(=O)N1C [Example 99, (9S,13S,19aR,22R)-22-benzyl-N-(4-bromo-2,6-difluorophenethyl)-13-isobutyl-12-methyl-7,11,14,20-tetraoxo-7,8,9,10,11,12,13,14,17,18,19,19a,20,21,22,23-hexadecahydro-16H-pyrido[2′,11:6,7][1]oxa[4,7,10,14]tetraazacycloheptadecino[17,16-c]quinoline-9-carboxamide]
0.201 µM	163%	CC(C)C[C@H]1C(=O)N(C)CC(=O)N[C@H](Cc2ccccc2)COc2cc3c(cc2C(=O)N[C@H](C(=O)NCCc2ccc4c(c2)OCCCO4)CC(=O)N1C)OCO3 [Example 101, (7R,13S,17S)-7-benzyl-N-(2-(3,4-dihydro-2H-benzo[b][1,4]dioxepin-7-yl)ethyl)-13-isobutyl-11,14-dimethyl-9,12,15,19-tetraoxo-6,7,8,9,10,11,12,13,14,15,16,17,18,19-tetradecahydro-[1,3]dioxolo[4′,5′:4,5]benzo[1,2-p][1]oxa[4,7,10,14]tetraazacycloheptadecine-17-carboxamide]
0.225 µM	332%	Cc1ccc(F)c(CCNC(=O)[C@@H]2CC(=O)N(C)[C@@H](CC(C)C)C(=O)N3CCCC[C@@H]3C(=O)N[C@H](Cc3ccccc3)COc3cnc4ccccc4c3C(=O)N2)c1F [Example 102, (9S,13S,19aR,22R)-22-benzyl-N-(2,6-difluoro-3-methylphenethyl)-13-isobutyl-12-methyl-7,11,14,20-tetraoxo-7,8,9,10,11,12,13,14,17,18,19,19a,20,21,22,23-hexadecahydro-16H-pyrido[2′,11:6,7][1]oxa[4,7,10,14]tetraazacycloheptadecino[17,16-c]quinoline-9-carboxamide]
0.499 µM	256%	CC(C)C[C@H]1C(=O)N2CCCC[C@@H]2C(=O)N[C@H](Cc2ccccc2)COc2cnc3ccccc3c2C(=O)N[C@H](C(=O)NCCc2ccns2)CC(=O)N1C [Example 103, (9S,13S,19aR,22R)-22-benzyl-13-isobutyl-N-(2-(isothiazol-5-yl)ethyl)-12-methyl-7,11,14,20-tetraoxo-7,8,9,10,11,12,13,14,17,18,19,19a,20,21,22,23-hexadecahydro-16H-pyrido[2′,1′:6,7][1]oxa[4,7,10,14]tetraazacycloheptadecino[17,16-c]quinoline-9-carboxamide]
0.211 µM	204%	Cc1cccc(F)c1CCNC(=O)[C@@H]1CC(=O)N(C)[C@@H](CC(C)C)C(=O)N2CCCC[C@@H]2C(=O)N[C@H](Cc2ccccc2)COc2cnc3ccccc3c2C(=O)N1 [Example 104, (9S,13S,19aR,22R)-22-benzyl-N-(2-fluoro-6-methylphenethyl)-13-isobutyl-12-methyl-7,11,14,20-tetraoxo-7,8,9,10,11,12,13,14,17,18,19,19a,20,21,22,23-hexadecahydro-16H-pyrido[2′,11:6,7][1]oxa[4,7,10,14]tetraazacycloheptadecino[17,16-c]quinoline-9-carboxamide]
0.173 µM	351%	CC(C)C[C@H]1C(=O)N2CCCC[C@@H]2C(=O)N[C@H](Cc2ccccc2)COc2cnc3ccccc3c2C(=O)N[C@H](C(=O)NCCc2cc(C3CC3)on2)CC(=O)N1C [Example 105, (9S,13S,19aR,22R)-22-benzyl-N-(2-(5-cyclopropylisoxazol-3-yl)ethyl)-13-isobutyl-12-methyl-7,11,14,20-tetraoxo-7,8,9,10,11,12,13,14,17,18,19,19a,20,21,22,23-hexadecahydro-16H-pyrido[2′,1′:6,7][1]oxa[4,7,10,14]tetraazacycloheptadecino[17,16-c]quinoline-9-carboxamide]
0.864 µM	308%	CC(C)C[C@H]1C(=O)N2CCOC[C@@H]2C(=O)N[C@H](Cc2ccccc2)COc2cnc3ccccc3c2C(=O)N[C@H](C(=O)NCCc2cc(C3CC3)on2)CC(=O)N1C [Example 106, (9S,13S,19aR,22R)-22-benzyl-N-(2-(5-cyclopropylisoxazol-3-yl)ethyl)-13-isobutyl-12-methyl-7,11,14,20-tetraoxo-7,8,9,10,11,12,13,14,16,17,19,19a,20,21,22,23-hexadecahydro-[1,4]oxazino[3′,4′:6,7][1]oxa[4,7,10,14]tetraazacycloheptadecino[17,16-c]quinoline-9-carboxamide]
0.794 µM	257%	CC(C)C[C@H]1C(=O)N2CCOC[C@@H]2C(=O)N[C@H](Cc2ccccc2)COc2cnc3ccccc3c2C(=O)N[C@H](C(=O)NCCc2cc(C(C)(C)C)on2)CC(=O)N1C [Example 107, (9S,13S,19aR,22R)-22-benzyl-N-(2-(5-(tert-butyl)isoxazol-3-yl)ethyl)-13-isobutyl-12-methyl-7,11,14,20-tetraoxo-7,8,9,10,11,12,13,14,16,17,19,19a,20,21,22,23-hexadecahydro-[1,4]oxazino[3′,4′:6,7][1]oxa[4,7,10,14]tetraazacycloheptadecino[17,16-c]quinoline-9-carboxamide]

Structure (SMILES)	EC50	Emax
CC(C)C[C@H]1C(=O)N2CCCC[C@@H]2C(=O)N[C@H](Cc2ccccc2)COc2cnc3ccccc3c2C(=O)N[C@H](C(=O)NCCc2ccc(F)cc2F)CC(=O)N1C [Example 94, (9S,13S,19aR,22R)-22-benzyl-N-(2,4-difluorophenethyl)-13-isobutyl-12-methyl-7,11,14,20-tetraoxo-7,8,9,10,11,12,13,14,17,18,19,19a,20,21,22,23-hexadecahydro-16H-pyrido[2′,1′:6,7][1]oxa[4,7,10,14]tetraazacycloheptadecino[17,16-c]quinoline-9-carboxamide]	0.257 µM	201%
Cc1cccc(CCNC(=O)[C@@H]2CC(=O)N(C)[C@@H](CC(C)C)C(=O)N3CCCC[C@@H]3C(=O)N[C@H](Cc3ccccc3)COc3cnc4ccccc4c3C(=O)N2)c1 [Example 96, (9S,13S,19aR,22R)-22-benzyl-13-isobutyl-12-methyl-N-(3-methylphenethyl)-7,11,14,20-tetraoxo-7,8,9,10,11,12,13,14,17,18,19,19a,20,21,22,23-hexadecahydro-16H-pyrido[2′,1′:6,7][1]oxa[4,7,10,14]tetraazacycloheptadecino[17,16-c]quinoline-9-carboxamide]	0.425 µM	206%
COc1ccc(CCNC(=O)[C@@H]2CC(=O)N(C)[C@@H](CC(C)C)C(=O)N3CCCC[C@@H]3C(=O)N[C@H](Cc3ccccc3)COc3cnc4ccccc4c3C(=O)N2)cc1F [Example 100, (9S,13S,19aR,22R)-22-benzyl-N-(3-fluoro-4-methoxyphenethyl)-13-isobutyl-12-methyl-7,11,14,20-tetraoxo-7,8,9,10,11,12,13,14,17,18,19,19a,20,21,22,23-hexadecahydro-16H-pyrido[2′,11:6,7][1]oxa[4,7,10,14]tetraazacycloheptadecino[17,16-c]quinoline-9-carboxamide]	0.184 µM	273%
CC(C)C[C@H]1C(=O)N(C)C2(CC2)C(=O)N[C@H](Cc2ccccc2)COc2cnc3ccccc3c2C(=O)N[C@H](C(=O)NCCc2ccccc2)CC(=O)N1C [Example 108, (3′S,7′S,13′R)-13′-benzyl-7′-isobutyl-6′,9′-dimethyl-1′,5′,8′,11′-tetraoxo-N-phenethyl-2′,3′,4′,5′,6′,7′,8′,9′,11′,12′,13′,14′-dodecahydro-1′H-spiro[cyclopropane-1,10′-[1]oxa[4,7,10,14]tetraazacycloheptadecino[17,16-c]quinoline]-3′-carboxamide]	0.581 µM	222%

— patent US20240208992A1, “MACROCYCLES AS CFTR MODULATORS” (Idorsia Pharmaceuticals Ltd, priority 2021, published 2024)
